The results in this text go back to ChEMBL document CHEMBL1129870, “INCORPORATION OF CONFORMATIONALLY CONSTRAINED PHENYLALANINE DERIVATIVES TIC, SIC, HIC AND NIC INTO A CHOLECYSTOKININ-B/GASTRIN RECEPTOR ANTAGONIST” (Bioorg Med Chem Lett, 1997).

One may read the IC50 as the concentration needed to halve the response being measured. Higher therefore signals weaker potency in that assay. One may read the pKB as the KB on a negative log10 scale, so that one unit is a factor of ten.

Assay [1] addresses T1, Gastrin/cholecystokinin type B receptor (Mus musculus, UniProt P56481).
T1 sequence (P56481 whole entry): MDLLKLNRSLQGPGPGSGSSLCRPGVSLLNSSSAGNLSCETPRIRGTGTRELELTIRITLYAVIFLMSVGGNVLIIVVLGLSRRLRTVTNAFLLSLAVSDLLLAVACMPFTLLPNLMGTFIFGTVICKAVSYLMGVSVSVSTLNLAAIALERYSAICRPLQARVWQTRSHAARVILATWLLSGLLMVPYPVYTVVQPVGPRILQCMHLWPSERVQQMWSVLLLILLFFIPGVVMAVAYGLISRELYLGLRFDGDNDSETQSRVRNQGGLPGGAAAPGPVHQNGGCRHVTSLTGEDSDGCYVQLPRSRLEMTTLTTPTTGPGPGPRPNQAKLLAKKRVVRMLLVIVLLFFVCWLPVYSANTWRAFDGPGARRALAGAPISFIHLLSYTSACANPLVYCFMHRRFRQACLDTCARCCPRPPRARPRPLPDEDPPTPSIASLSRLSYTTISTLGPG
As to the kind of experiment: Evaluated for Cholecystokinin type B receptor antagonistic activity in which 20 pM [125I]BH-CCK-8S was used to label CCKB/gastrin binding sites in mouse cortical homogenates.

The target of assay [2] is T2, Gastrin/cholecystokinin type B receptor (Rattus norvegicus) (UniProt P30553).
T2 sequence (whole entry): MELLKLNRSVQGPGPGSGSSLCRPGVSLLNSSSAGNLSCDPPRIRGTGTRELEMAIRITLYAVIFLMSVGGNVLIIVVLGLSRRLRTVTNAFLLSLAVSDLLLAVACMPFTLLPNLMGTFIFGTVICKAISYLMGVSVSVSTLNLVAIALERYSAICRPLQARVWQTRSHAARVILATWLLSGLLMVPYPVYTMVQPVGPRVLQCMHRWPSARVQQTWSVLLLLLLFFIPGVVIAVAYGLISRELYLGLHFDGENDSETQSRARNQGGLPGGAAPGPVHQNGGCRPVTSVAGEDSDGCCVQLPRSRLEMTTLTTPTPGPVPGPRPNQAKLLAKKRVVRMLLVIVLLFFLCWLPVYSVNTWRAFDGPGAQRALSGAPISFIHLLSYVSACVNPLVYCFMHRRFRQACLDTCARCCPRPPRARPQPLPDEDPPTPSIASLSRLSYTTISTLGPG
Kind of assay: Evaluated for Cholecystokinin type B receptor antagonistic activity in isolated lumen-perfused immature rat stomach. It is filed as functional, tissue-based.

`O=C(O)c1cc(NC(=O)C2Cc3ccccc3CN2C(=O)c2cc3[nH]cnc3cc2C(=O)NCC23CC4CC(CC(C4)C2)C3)cc(C(=O)O)c1` (stereo not given): in assay [1], the IC50 is 178 nM. Besides, the pKB in assay [2] was found to be 7.64.

For `O=C(O)c1cc(NC(=O)[C@H](Cc2ccccc2)NC(=O)c2cc3[nH]cnc3cc2C(=O)NCC23CC4CC(CC(C4)C2)C3)cc(C(=O)O)c1`, the IC50 in assay [1] is 5.25 nM. Also, the pKB in assay [2] was found to be 9.08.

Compound `O=C(O)c1cc(NC(=O)C2Cc3ccccc3CCCCN2C(=O)c2cc3[nH]cnc3cc2C(=O)NCC23CC4CC(CC(C4)C2)C3)cc(C(=O)O)c1` (stereo not given) had a 50% inhibitory concentration (IC50) in assay [1] of 5.01 nM. The compound also had a negative-log KB (pKB) in assay [2] of 9.13.

Compound `O=C(O)c1cc(NC(=O)C2Cc3ccccc3CCN2C(=O)c2cc3[nH]cnc3cc2C(=O)NCC23CC4CC(CC(C4)C2)C3)cc(C(=O)O)c1` (stereo not given) showed an IC50 in assay [1] of 234 nM. Moreover, in assay [2], the negative-log KB (pKB) was 7.66.

The compound `O=C(O)c1cc(NC(=O)C2Cc3ccccc3CCCN2C(=O)c2cc3[nH]cnc3cc2C(=O)NCC23CC4CC(CC(C4)C2)C3)cc(C(=O)O)c1` (stereo not given) gave an IC50 in assay [1] of 224 nM. Also, the pKB in assay [2] amounted to 7.93.
